TGI data for 8 compounds are collected here from PubChem BioAssay (NCI).

Test systems include 786-0 renal; PC-3 prostate; SNB-19 CNS; OVCAR-4 ovarian; RXF 393 renal; SK-MEL-5 melanoma; UACC-62 melanoma; HOP-92 NSCLC; MDA-N; NCI-H226 lung; SK-MEL-28 melanoma; EKVX NSCLC; HT29 colon; NCI/ADR-RES ovarian; HS 578T breast; DU-145 prostate; OVCAR-5 ovarian; A498 renal.
What all share (experiment): NCI-60 cell line screen, 48 h

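Interpolation was linear, between the two tested concentrations surrounding the appropriate level; five concentrations were tested over 48 hours in 96-well plates. TGI: concentration producing complete growth inhibition.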 Some results are limits rather than exact numbers.

Turning to `CCN(CCCl)c1cc(CN(C)C)cc(NC(=O)c2ccc(C(=O)Nc3cc(CN(C)C)cc(N(CC)CCCl)c3)cc2)c1`, the TGI with 786-0 renal came to 1.3 µM; in the test with PC-3 prostate, 2.4 µM; with SNB-19 CNS, 0.936 µM; with OVCAR-4 ovarian it was 9.46 µM; with RXF 393 renal, 0.109 µM; with SK-MEL-5 melanoma, 0.328 µM. The TGI came out at 0.273 µM in the test with UACC-62 melanoma; 0.662 µM with HOP-92 NSCLC; 0.594 µM with MDA-N; 0.251 µM in the test with NCI-H226 lung; 0.536 µM in the test on SK-MEL-28 melanoma; 5.58 µM with EKVX NSCLC. Further, the TGI in the test with HT29 colon is 3.55 µM; in the test with NCI/ADR-RES ovarian, greater than 100 µM; in the test with HS 578T breast it was 0.761 µM; in the test on DU-145 prostate, 13.7 µM; with OVCAR-5 ovarian it was 0.966 µM.
For `C=C(C)C1CC=C(C)C(=O)C1` (stereo not drawn), the TGI in the test on 786-0 renal, with PC-3 prostate, in the test on SNB-19 CNS, with OVCAR-4 ovarian, in the test with SK-MEL-5 melanoma and in the test on HOP-92 NSCLC was greater than 100 µM each time. Also, the TGI in the test with MDA-N, with NCI-H226 lung, with SK-MEL-28 melanoma, in the test on EKVX NSCLC, with HT29 colon and in the test on NCI/ADR-RES ovarian was greater than 100 µM in each case. Moreover, the TGI with HS 578T breast, in the test with DU-145 prostate and in the test on OVCAR-5 ovarian was greater than 100 µM in each case.
Take `Cc1cccc2nc(-c3ccccc3)cc(=O)n12`: the TGI in the test on 786-0 renal, in the test with PC-3 prostate, with SNB-19 CNS, in the test on OVCAR-4 ovarian, with RXF 393 renal and with SK-MEL-5 melanoma was greater than 100 µM throughout. Also, the TGI in the test on UACC-62 melanoma, in the test with HOP-92 NSCLC, in the test with MDA-N, in the test on NCI-H226 lung, with SK-MEL-28 melanoma and in the test on EKVX NSCLC was greater than 100 µM each time. The TGI with HT29 colon, in the test on NCI/ADR-RES ovarian, with HS 578T breast, in the test on DU-145 prostate and with OVCAR-5 ovarian was greater than 100 µM each time.
With `O=C(O)c1cccc(Nc2c(C(=O)O)cccc2[N+](=O)[O-])c1`, the TGI in the test on 786-0 renal, in the test with PC-3 prostate, in the test with SNB-19 CNS, in the test on OVCAR-4 ovarian, in the test with SK-MEL-5 melanoma and in the test on UACC-62 melanoma was greater than 100 µM in each case. Further, the TGI in the test with HOP-92 NSCLC, in the test with MDA-N, in the test on EKVX NSCLC, with HT29 colon, in the test with NCI/ADR-RES ovarian and in the test with HS 578T breast was greater than 100 µM each time. Further, the TGI in the test on DU-145 prostate, in the test with A498 renal and in the test with OVCAR-5 ovarian was greater than 100 µM throughout.
In the case of `COc1ccccc1C[C@@H]1OC2(C=CC(=O)CC2SC(=O)c2ccccc2)O[C@H]1Cc1ccccc1OC` (stereo partly drawn), the TGI with 786-0 renal was determined as 0.973 µM; in the test on PC-3 prostate, 4.71 µM; in the test on SNB-19 CNS it was 4.94 µM; with OVCAR-4 ovarian it was 3.69 µM; in the test on RXF 393 renal it was 0.501 µM; with SK-MEL-5 melanoma, 3.1 µM. Moreover, the TGI was 7 µM with UACC-62 melanoma; 3.31 µM in the test on HOP-92 NSCLC; 6.16 µM in the test on MDA-N; 3.22 µM in the test with SK-MEL-28 melanoma; 3.14 µM in the test with HT29 colon; 4.55 µM with NCI/ADR-RES ovarian. The TGI in the test with HS 578T breast was 4.73 µM; in the test on DU-145 prostate it was 18 µM; in the test on A498 renal it was 5.67 µM; in the test on OVCAR-5 ovarian, 2.63 µM.
For `OCC1OC(NC(=S)NCCC(F)(F)C(F)(F)C(F)(F)C(F)(F)C(F)(F)C(F)(F)F)C(O)C(O)C1O` (stereo not drawn), the TGI in the test on 786-0 renal, in the test with PC-3 prostate, with SNB-19 CNS, with OVCAR-4 ovarian, with RXF 393 renal and with SK-MEL-5 melanoma was greater than 100 µM in each case. Also, the TGI in the test with UACC-62 melanoma, with HOP-92 NSCLC, in the test on MDA-N, in the test on SK-MEL-28 melanoma, in the test with HT29 colon and in the test with NCI/ADR-RES ovarian was greater than 100 µM each time. Also, the TGI in the test on HS 578T breast is greater than 100 µM; with DU-145 prostate it was greater than 100 µM; with A498 renal, 56.6 µM; in the test with OVCAR-5 ovarian, greater than 100 µM.
Consider `[O-][n+]1nc(N2CCOCC2)nc2ccccc21`, for which the TGI with 786-0 renal, in the test with PC-3 prostate, with SNB-19 CNS, in the test with RXF 393 renal, in the test on UACC-62 melanoma and in the test with MDA-N was greater than 100 µM in each case. Also, the TGI in the test with NCI-H226 lung, with SK-MEL-28 melanoma, in the test on EKVX NSCLC, in the test on HT29 colon, in the test with NCI/ADR-RES ovarian and in the test with HS 578T breast was greater than 100 µM each time. The TGI in the test on DU-145 prostate, in the test on A498 renal and in the test on OVCAR-5 ovarian was greater than 100 µM each time.
In the case of `CC[C@]12C=CCN3CC[C@@]4(c5cc(Br)c(OC)c([N+](=O)[O-])c5N(C)[C@H]4[C@@](O)(C(=O)OC)[C@@H]1OC(C)=O)[C@@H]32`, the TGI in the test on 786-0 renal, in the test with PC-3 prostate, in the test on SNB-19 CNS, with OVCAR-4 ovarian, with RXF 393 renal and in the test with SK-MEL-5 melanoma was greater than 100 µM each time. The TGI with UACC-62 melanoma was greater than 100 µM; with MDA-N it was greater than 100 µM; in the test on NCI-H226 lung it was greater than 100 µM; in the test with SK-MEL-28 melanoma, greater than 100 µM; with EKVX NSCLC it was 91.4 µM; with HT29 colon, greater than 100 µM. In addition, the TGI in the test with NCI/ADR-RES ovarian, with HS 578T breast, in the test with DU-145 prostate, in the test on A498 renal and with OVCAR-5 ovarian was greater than 100 µM throughout.
